Data published in patent US7498304B2, “Angiogenesis-modulating compositions and uses” (Curis, Inc., priority 2002, dated 2009).

Experiments:
[1] = tested on: Shh signaling pathway in MEFs homozygous for ptc-lacZ (cell line 23-1); assay: β-galactosidase activity in ptc-lacZ homozygous mouse embryonic fibroblasts; type: cell-based; conditions: normalized to whole protein content
Description: These studies involve the use of mouse embryonic fibroblasts (MEFs) that were generated by trypsin digestion of E8.5 embryos from patched (ptc) ±matings. […] Thus, in these ptc−/− embryos, the Shh signaling pathway is activated in many tissues, and the lacZ gene product β-galactosidase is expressed in all of those tissues as a report of pathway activation.
The Shh signaling pathway can be activated in these fibroblasts in cell culture, and that the level of β-galactosidase activity does reflect the degree of pathway activation. The MEF line 23-4 is heterozygous for ptc-lacZ, and thus contains one functional ptc allele capable of maintaining a repressed state of the pathway, but will express lacZ when the pathway is activated by addition of Shh protein.

[2] = tested on: normal human fibroblasts (CCD37); assay: normal human fibroblasts (CCD37), competitive RT-PCR and VEGF165 ELISA; type: cell-based
Description: To determine if hedgehog can directly induce fibroblasts to produce VEGF or other angiogenic factors, we treated normal human fibroblasts (CCD37) with Myr-Shh and the ability of fibroblasts to respond was evaluated by competitive RT-PCR for ptc 1 and several angiogenic growth factors. Total RNA was prepared from cells treated as described above using Trizol (Life Technologies, Rockville, Md.). Four micrograms of total RNA was used to prepare cDNA using the SuperScriptTM preamplification system (Cat. No. 18089-011, Life Technologies, Rockville, Md.). The PCR reaction using buffer reagents from the SuperScriptTM preamplification system (Life Technologies, Rockville, Md.) was quantitated with […] competitive primers (Ambion). Primers for the amplification of Ptc 1 were [NT] ID NO: 38) and [NT] ID NO: 39) which are based on ptc1 cDNA sequence (GenBank Accession Number U46155). All amplification for Ptc1 were done with 25 cycles of 94° C. for 30 sec; 55° C. for 1 min; 72° C. for 1 min. The cDNA from the same cells was also used as a template for VEGF, bFGF, Angiopoietin 1, and Angiopoietin II amplification. The following primer pairs and PCR cycles were used: […] [NT] ID NO: 40) and [NT] ID NO: 41) which are based on the human VEGF cDNA sequence (GenBank Accession Number E15157). VEGF product was amplified with 30 cycles of 94° C. for 30 sec; 62° C. for 1 min; 72° C. for 1 min; bFGF: [NT] ID NO: 42) and [NT] ID NO: 43) which is based on the human bFGF cDNA sequence (GenBank Accession Number M27968). bFGF product was amplified with 25 cycles of 94° C. for 30 sec; 62° C. for 1 min; 72° C. for 1 min; Angiopoietin I [NT] ID NO: 44) and [NT] ID NO: 45) which is based on human Angiopoietin I cDNA sequence (GenBank Accession Number U83508). Angiopoietin I product was amplified with 25 cycles of 94° C. for 30 sec; 64° C. for 90 sec; Angiopoietin II: [NT] ID NO:46) and [NT] ID NO: 47) which are based on human Angiopoietin II cDNA sequence (GenBank Accesion Number AB009865). Angiopoietin II product was amplified with 32 cycles of 94° C. for 30 sec; 64° C. for 90 sec. As internal control for sample preparation, gel loading, and random variations in RT-PCR, 18S rRNA primers and 18S rRNA competimers (Ambion, Austin, Tex.), used to modify 18S cDNA amplification efficiency, were included in each PCR reaction with target gene-specific primers. The linear range of amplification and optimal 18S primer/Competimer ratio was determined for each target gene following the manufacturer's recommendations (Ambion, Austin, Tex.). […] VEGF 121, 165, and 189 upregulation began at 12 hours and was maximal after 48 hours of incubation of the cells with Shh. […] Cells were stimulated with recombinant human myristolated Shh protein as described above. At harvest, the cell conditioned media was collected, centrifuged to remove cell debris (15 minutes at 1500×g) and production of VEGF165 protein was evaluated by using an ELISA kit (Quantikine human VEGF, R&D Systems, Minneapolis, Minn.).

[3] = tested on: vascular smooth muscle cells (PAC 1), normal human lung fibroblasts, normal prostate stromal cells; assay: ptc 1 RT-PCR in smooth muscle cells, lung fibroblasts and prostate stromal cells; type: cell-based; conditions: 1 ug/ml for 2 days, vs vehicle
Description: Eighty five percent confluent monolayers of vascular smooth muscle cells (PAC 1) were induced for 2 days with 1 ug/ml of myrShh or an equivalent volume of vehicle in normal media (M 199 complete media with 10% fetal bovine serum). For comparison, primary normal human lung fibroblasts and normal prostate stromal cells were grown in complete FBM and similarly stimulated (Clonetics/Bio-Whittaker, Walkersville, Md.). The cells were harvested and RNA from the cells was prepared and analysed by RT-PCR as above. […] In addition, hedgehog protein induced DNA synthesis in quiescent vascular SMCs and human fibroblasts. PAC-1 (Rothman et al., 1992), WKY (Lemire et al., 1994), primary pulmonary artery SMCs or aortic SMCs (Clonetics/Bio-Whittaker, Walkersville, Md.) were plated (5×10^3/well) in 96 well plates and allowed to adhere for 2-3 hours in 0.18 ml of complete media (M 199 with 10% fetal bovine serum for PAC 1 cells, DMEM with 10% fetal bovine serum for WKY cells or smGM-2 for primary human pulmonary artery or aortic SMCs). The cells were then starved for 18-24 hours in complete media with 0.5% fetal bovine serum. […] 3H-thymidine uptake into cells was determined by scintillation counting using a 1205 Betaplate counter (Wallac, Gaithersburg, Md.).

[4] = tested on: human umbilical vein and microvascular endothelial cells; assay: response of endothelial cells to Hh; type: cell-based
mouse cornea = assay: mouse corneal pocket model of angiogenesis; type: in vivo
Description: To confirm the angiogenic activity of hedgehog in another well accepted model of angiogenesis, we tested the ability of hedgehog protein to induce neovascularization in the mouse corneal model pocket model of angiogenesis.
Animals were anesthetized by pentobarbital intraperitoneal injection (160 mg/kg). Corneal pockets were created in the eyes of each mouse and a 0.34×0.34 mm sucrose albumin sulfate (Bukh Meditec, Vaerlose, DK) pellet coated with hydron polymer type NCC (Interferon Sciences, New Brunswick, N.J.) containing 1 of the agents indicated below was implanted into the corneal pocket. […] mice were divided into 5 groups: control buffer alone; VEGF 300 ng/pellet; Myr-Shh vehicle alone; Myr-Shh 1.5 microg/pellet […]; Myr-Shh+VEGF (1.5 microg/pellet +300 ng/pellet, respectively). Pellets were positioned 1.0 mm from the corneal limbus, and erythromycin ophthalmic ointment (E. Fourera) was applied to each operated eye. The corneas of all mice were routinely examined by slit-lamp biomicroscopy on postoperative day 6 after pellet implantation.
On the same day vessel length and corneal circumferential neovascularity (in degrees) were measured. After completing these measurements, C57BL/6J mice received an intravenous injection of […] of BS-1 lectin FITC-conjugated (Vector Laboratories, Burlingame, Calif.). Thirty minutes later, the animals were sacrificed. The eyes were enucleated and fixed in 1% paraformaldehyde solution. After fixation, the corneas were placed on glass slides and examined by fluorescence microscopy.
To determine the mechanism by which Shh induces angiogenesis both Shh and VEGF-stimulated corneas (see Example 3) were excised and X-gal stained as described in Example 1 after fixation of the whole eye for 1 hour in 1% paraformaldehyde followed by enucleation and fixation of the corneal hemisphere in 1% paraformaldehyde for 30 minutes. […] Endothelial cell immunostaining was done with a rat monoclonal antibody against mouse CD-31 (Pharmigen, San Diego, Calif.) followed by a biotinylated goat anti-rat immunoglobulin secondary antibody. Smooth muscle cells and pericytes were identified with a mouse monoclonal antibody against SM a-actin conjugated with alkaline-phosphatase (Sigma, St. Louis, Mo.) and fibroblasts were identified using an anti-vimentin antibody (Sigma, St. Louis, Mo.).
We then immunostained the Shh-induced corneas with a rabbit polyclonal anti-VEGF antibody (Santa Cruz Biotechnology, Santa Cruz, Calif.) with a biotinylated goat anti-rabbit immunoglobulin as secondary antibody.

[5] = pellet: Myr-Shh 1.5 microg or VEGF 300 ng

Row | Compound | β-galactosidase activity [1] | start of VEGF 121, 165 and 189 upregulation [2] [h] | time of maximal VEGF 121, 165 and 189 upregulation [2] [h] | time of maximal increase of Ang-1 and Ang-2 [2] [h] | VEGF mRNA isoforms (VEGF121, 165, 189) ([2]; RT-PCR) | bFGF mRNA ([2]; any time-points) | VEGF production (VEGF165 protein in cell media, ELISA) ([2]; at 72 hours) | Ang-1 and Ang-2 mRNA ([2]; quantitative RT-PCR) | Ptc1 gene expression ([2]; time course) | ptc 1 expression [3] | response to Hh [4] | X-gal staining (Ptc 1 expression) of corneas (mouse cornea; Ptc1-lacZ corneas) | VEGF immunostaining of corneas (mouse cornea; anti-VEGF antibody) | density of vessels (mouse cornea; compared with VEGF) | maximum vessel lengths (mouse cornea; [5]) | vessel diameters (mean) (mouse cornea; [5]) [um] | neovascular growth (mouse cornea; pellet: Myr-Shh 1.5 microg or VEGF 300 ng, day 6) | vessel length, circumferential neovascularity and diameter of the lumens (mouse cornea; summary)
1 | C[C@H]1CC[C@]2(NC1)O[C@H]1C[C@H]3[C@@H]4CC[C@H]5C[C@@H](O)CC[C@]5(C)[C@H]4CC[C@]3(C)[C@H]1[C@@H]2C [tomatidine] | cannot be achieved |  |  |  |  |  |  |  |  |  |  |  |  |  |  |  |  | 
2 | Myr-Shh: recombinant human myristolated Shh protein (myristylated Sonic hedgehog) |  | 12 | 48 | 36 | strongly upregulated | No bFGF upregulation was detectable | significant upregulation | upregulation of both genes | upregulating the Ptc1 gene | increased ptc 1 expression | Neither human umbilical vein and microvascular endothelial cells respond | strong X-gal staining | VEGF protein is in the fibroblasts and matrix immediately adjacent to the neovascular area | slightly lower | 1020+200 um | 33±17 | significant neovascular growth | statistically significant increase
